Test results from patent publication US20090048301A1 (IMCLONE SYSTEMS INCORPORATED, priority 2003, published 2009).

System: bovine tubulin
Experiment: In vitro tubulin polymerization assay (turbidity at 340 nm)
Format: biochemical
Conditions: 10 μM compound, 30 minute data point, vs 1% DMSO control
Procedure: Briefly, tubulin polymerization is a kinetic process that is temperature-dependent and requires GTP and was performed as follows. Soluble tubulin dimers polymerize into microtubules upon warming, and polymerization in vitro correlates with an increase in turbidity (measured at 340 nm). Lyophilized bovine tubulin (HTS Tubulin—97% tubulin, <3% MAPs—Cytoskeleton Inc.) was ressuspended in G-PEM buffer (80 mM PIPES pH 7, 1 mM EGTA, 1 mM MgCl2, 1 mM GTP, 5% glycerol) to a final concentration of 3 mg/ml and kept at 4° C. Compounds in 100× stock solutions in DMSO were dotted to pre-warmed 96-well plates (Corning Costar 3696), the plates were transferred to a 37° C. plate reader (SPECTRAmax Plus, Molecular Devices), cold tubulin was added to the wells, and the plates were shaken for mixing. The absorbance at 340 nm was determined at one minute intervals for 30 minutes. Kinetic curves with 30 points each were collected for each compound, and the dynamic range was between 0 and 0.4 OD units. The percentage inhibition values were calculated using the 30 minute data point and based on control samples (treated with 1% DMSO only). The assay is a modified version of the HTS kit sold by Cytoskeleton (1830 S. Acoma St., Denver, Colo.), adapted to maximize throughput and reduce time, without reduction in dynamic range or sensitivity, while retaining the ability to detect compounds that inhibit or enhance tubulin polymerization.
Tubulin polymerization is a kinetic process that is temperature-dependent and requires GTP. Soluble tubulin dimers polymerize into microtubules upon warming, and polymerization in vitro correlates with an increase in turbidity (measured at 340 nm). Liophilized bovine tubulin (HTS Tubulin—97% tubulin, <3% MAPs—Cytoskeleton Inc.) was ressuspended in G-PEM buffer (80 mM PIPES pH 7, 1 mM EGTA, 1 mM MgCl2, 1 mM GTP, 5% glycerol) to a final concentration of 3 mg/ml and kept at 4° C. Compounds in 100× stock solutions in DMSO were dotted to pre-warmed 96-well plates (Corning Costar 3696), the plates were immediately transferred to a 37° C. plate reader (SPECTRAmax Plus, Molecular Devices), cold tubulin was added to the wells, plates were shaken for mixing, and absorbance at 340 nm was read every minute for 30 minutes. Kinetic curves with 30 points each were collected for each compound, and the dynamic range was between 0 and 0.4 OD units. Percentage inhibition values were calculated using the 30 minute data point, based on control samples (treated with 1% DMSO only). This assay is a modified version of the HTS kit sold by Cytoskeleton, adapted to maximize throughput and reduce time, without reduction in dynamic range or sensitivity, while retaining the ability to detect compounds that inhibit or enhance tubulin polymerization.

| SMILES | Tubulin Assay: percent inhibition at 10 μM based on 30 minute data [%] |
| --- | --- |
| COc1cc(CNc2ncccc2-c2nnc(Nc3ccc(OC)cc3OC)[nH]2)cc(OC)c1 [Compound 24, (3,5-Dimethoxy-benzyl)-{3-[5-(2,4-dimethoxy-phenylamino)-4H-[1,2,4]triazol-3-yl]-pyridin-2-yl}-amine] | 20 |
| Brc1cnn(-c2ncccc2-c2nnc(Nc3ccc4c(c3)OCCO4)o2)c1 [Compound 211, {5-[2-(4-Bromo-pyrazol-1-yl)-pyridin-3-yl]-[1,3,4]oxadiazol-2-yl}-(2,3-dihydro-benzo[1,4]dioxin-6-yl)-amine] | 73 |
| c1cnc(NCc2ccc3c(c2)CCO3)c(-c2nnc(Nc3ccc4c(c3)OCO4)[nH]2)c1 [Compound 36, {3-[5-(Benzo[1,3]dioxol-5-ylamino)-4H-[1,2,4]triazol-3-yl]-pyridin-2-yl}-(2,3-dihydro-benzofuran-5-ylmethyl)-amine] | 67 |
| c1cncc(COc2ccccc2-c2cnc(Nc3ccc4c(c3)OCCO4)o2)c1 [Compound 254, (2,3-Dihydro-benzo[1,4]dioxin-6-yl)-{5-[2-(pyridin-3-ylmethoxy)-phenyl]-oxazol-2-yl}-amine] | 95 |
| COc1cc(Nc2ncccc2-c2nnc(N)o2)cc(OC)c1 [Compound 243a, [3-(5-Amino-[1,3,4]oxadiazol-2-yl)-pyridin-2-yl]-(3,5-dimethoxy-phenyl)-amine] | 46 |
| O=C1CCCN1CCCNc1ncccc1-c1nnc(Nc2ccc3c(c2)OCCO3)[nH]1 [Compound 48, 1-(3-{3-[5-(2,3-Dihydro-benzo[1,4]dioxin-6-ylamino)-4H-[1,2,4]thiazol-3-yl]-pyridin-2-ylamino}-propyl)-pyrrolidin-2-one] | 21 |
| FC(F)(F)c1ccc(-c2nnc(-c3ccccc3NCc3ccc4c(c3)OCCO4)[nH]2)cc1 [Compound 139, (2,3-Dihydro-benzo[1,4]dioxin-6-ylmethyl)-{2-[5-(4-trifluoromethyl-phenyl)-4H-[1,2,4]triazol-3-yl]-phenyl}-amine] | 21 |
| CS(=O)(=O)c1ccc(-c2nnc(-c3ccc(C(F)(F)F)cc3NCc3ccncc3)[nH]2)cc1 [Compound 153, {2-[5-(4-Methanesulfonyl-phenyl)-4H-[1,2,4]triazol-3-yl]-5-trifluoromethyl-phenyl}-pyridin-4-ylmethyl-amine] | 54 |
| CN(C)c1ccc(-c2nnc(Nc3ccc4c(c3)OCCO4)o2)c(NCc2ccccn2)c1 [Compound 230, (2,3-Dihydro-benzo[1,4]dioxin-6-yl)-(5-{4-dimethylamino-2-[(pyridin-2-ylmethyl)-amino]-phenyl}-[1,3,4]oxadiazol-2-yl)-amine] | 45 |
| COc1cccc(Nc2nnc(-c3cccnc3NCC3COCCO3)[nH]2)c1 (stereo not drawn) [Compound 46, [1,4]Dioxan-2-ylmethyl-{3-[5-(3-methoxy-phenylamino)-4H-[1,2,4]triazol-3-yl]-pyridin-2-yl}-amine] | 25 |
| c1ccc(-c2nnc(Nc3ccc4c(c3)OCO4)[nH]2)c(NCc2ccc3[nH]cnc3c2)c1 [Compound 118, Benzo[1,3]dioxol-5-yl-(5-{2-[(1H-benzoimidazol-5-ylmethyl)-amino]-phenyl}-4H-[1,2,4]triazol-3-yl)-amine] | 41 |
| COc1cccc(Nc2nnc(-c3cccnc3NCc3ccc4c(c3)CCO4)[nH]2)c1 [Compound 37, (2,3-Dihydro-benzofuran-5-ylmethyl)-{3-[5-(3-methoxy-phenylamino)-4H-[1,2,4]triazol-3-yl]-pyridin-2-yl}-amine] | 91 |
| FC(F)(F)Oc1cccc(-c2nnc(-c3ccccc3NCc3ccc4[nH]cnc4c3)[nH]2)c1 [Compound 144, (1H-Benzoimidazol-5-ylmethyl)-{2-[5-(3-trifluoromethoxy-phenyl)-4H-[1,2,4]triazol-3-yl]-phenyl}-amine] | 86 |
| COc1cc(Nc2ncccc2-c2nnc(-c3ccc(S(C)(=O)=O)cc3)o2)cc(OC)c1 [Compound 213, (3,5-Dimethoxy-phenyl)-{3-[5-(4-methanesulfonyl-phenyl)-[1,3,4]oxadiazol-2-yl]-pyridin-2-yl}-amine] | 30 |
| FC(F)(F)c1cccc(-c2nnc(-c3cccnc3NCc3ccncc3)[nH]2)c1 [Compound 76, Pyridin-4-ylmethyl-{3-[5-(3-trifluoromethyl-phenyl)-4H-[1,2,4]thiazol-3-yl]-pyridin-2-yl}-amine] | 21 |
| c1cncc(CCNc2ncccc2-c2nnc(Nc3ccc4c(c3)OCCO4)o2)c1 [Compound 201, {3-[5-(2,3-Dihydro-benzo[1,4]dioxin-6-ylamino)-[1,3,4]oxadiazol-2-yl]-pyridin-2-yl}-(2-pyridin-3-yl-ethyl)-amine] | 23 |
| COc1cccc(Nc2ncc(-c3ccccc3NCc3ccc(F)c(F)c3)o2)c1 [Compound 252, {5-[2-(3,4-Difluoro-benzylamino)-phenyl]-oxazol-2-yl}-(3-methoxy-phenyl)-amine] | 27 |
| COc1cccc(-c2nnc(-c3cccnc3OCc3ccc4c(c3)OCO4)[nH]2)c1 [Compound 110, 2-(Benzo[1,3]dioxol-5-ylmethoxy)-3-[5-(3-methoxy-phenyl)-4H-[1,2,4]triazol-3-yl]-pyridine] | 20 |
| O=[N+]([O-])c1cc(C(F)(F)F)ccc1-c1nnc(Nc2ccc3c(c2)OCO3)[nH]1 [Compound 124b] | 26 |
| CN(C)c1ccc(Nc2nnc(-c3ccccc3NCc3ccc(F)c(F)c3)[nH]2)cc1 [Compound 121, {5-[2-(3,4-Difluoro-benzylamino)-phenyl]-4H-[1,2,4]triazol-3-yl}-(4-dimethylamino-phenyl)-amine] | 23 |
| c1cncc(CNc2ccccc2-c2cnc(Nc3ccc4c(c3)OCCO4)o2)c1 [Compound 248, (2,3-Dihydro-benzo[1,4]dioxin-6-yl)-(5-{2-[(pyridin-3-ylmethyl)-amino]-phenyl}-oxazol-2-yl)-amine] | 79 |
| COc1cccc(-c2nnc(-c3cccnc3NCc3ccco3)[nH]2)c1 [Compound 95, Furan-2-ylmethyl-{3-[5-(3-methoxy-phenyl)-4H-[1,2,4]triazol-3-yl]-pyridin-2-yl}-amine] | 41 |
| O=S(=O)(Nc1ccccc1-c1nnc(Nc2ccc3c(c2)OCO3)o1)c1cccc(OC(F)(F)F)c1 [Compound 239, N-{2-[5-(Benzo[1,3]dioxol-5-ylamino)-[1,3,4]oxadiazol-2-yl]-phenyl}-3-trifluoromethoxy-benzenesulfonamide] | 49 |
| COc1cccc(-c2nnc(-c3ccccc3NCc3ccc4[nH]cnc4c3)[nH]2)c1 [Compound 137, (1H-Benzoimidazol-5-ylmethyl)-{2-[5-(3-methoxy-phenyl)-4H-[1,2,4]triazol-3-yl]-phenyl}-amine] | 28 |
| CS(=O)(=O)c1ccc(-c2nnc(-c3ccccc3NCC3CCOC3)[nH]2)cc1 (stereo not drawn) [Compound 134, {2-[5-(4-Methanesulfonyl-phenyl)-4H-[1,2,4]triazol-3-yl]-phenyl}-(tetrahydro-furan-3-ylmethyl)-amine] | 34 |
| Nc1cc(C(F)(F)F)ccc1-c1nnc(Nc2ccc3c(c2)OCO3)[nH]1 [Compound 124c, [5-(2-Amino-4-trifluoromethyl-phenyl)-4H-[1,2,4]triazol-3-yl]-benzo[1,3]dioxol-5-yl-amine] | 61 |
| FC(F)(F)c1ccc(-c2nnc(-c3ccccc3NCc3ccc4c(c3)OCO4)[nH]2)cc1 [Compound 138, Benzo[1,3]dioxol-5-ylmethyl-{2-[5-(4-trifluoromethyl-phenyl)-4H-[1,2,4]triazol-3-yl]-phenyl}-amine] | 28 |
